In patent US5204327A, “Treatment of cerebral edema with ANP pharmaceutical compositions” (Ashi Kasei Kogyo Kabushiki Kaisha, priority 1988, dated 1993):

How the values were obtained:
[1] = tested on: vasogenic cerebral edema caused by cold injury; test: Effect on experimental vasogenic cerebral edema (cold injury); type: in vivo, male Crj:CD (SD) rats; conditions: rats
Description: Using 42 male Crj:CD (SD) rats weighing 300 to 400 g, model animals of vasogenic cerebral edema caused by cold injury were prepared according to the method of Naruse et al. (Brain and Nerve, 33 (6): 569-575 (1981)). (Administration method)
(§1) Peptide (II) obtained in Reference Example 1 was diluted with a physiological saline so that the peptide concentration became 100 μg/3 ml. The solution containing the peptide was continuously administered to eleven rats through the tail vein thereof in an amount of 10 ml per kg of body weight so that the total dose of the administered peptide became 100 μg per kg of body weight, to thereby obtain a peptide (II)-administeredgroup.
Peptide (III) was administered to eight rats in the same manner as described above except that peptide (III) was used instead of peptide (II), to thereby obtain a peptide (III)-administered group.
As a control (solvent), 3 ml per kg of body weight of the physiological saline was administered to eleven rats in substantially the same manner as mentioned above, to thereby obtain a physiological saline-administered group.
As a control for the peptide, an aqueous 10% w/v glycerol solution containing 5% w/v fructose and 0.9% w/v sodium chloride was administered to twelve rats so that the total volume of the administered solution became 10 ml per kg of body weight, to thereby obtain a glycerol-administered group.
The administration of each of the peptide (II) solution, peptide (III) solution and physiological saline was started one hour before the making of cold injury and completed in 90 minutes. On the other hand, the administration of the glycerol solution was started 23 hours after the making of cold injury and completed in 30 minutes in accordance with the ordinary clinical method, so that the total volume of the administered glycerol solution became 10 ml/kg of body weight.
24 hours after the rats had been subjected to cold injury, rats were sacrificed under ether anesthesia. […]
The water content of each of the hemispheres was measured in substantially the same manner as in Example 1. […]

[2] = tested on: ischemic cerebral edema caused by occlusion of middle cerebral artery; test: Effect on experimental ischemic cerebral edema (MCA occlusion, Tamura model); type: in vivo, male Wistar rats; conditions: rats
Description: Using 41 male Wistar rats weighing 250 to 350 g, model animals of ischemic cerebral edema caused by occlusion of middle cerebral artery (hereinafter referred to as "MCA") were prepared according to the method of Tamura et al. (Journal of Cerebral Blood Flow and Metabolism, 1, 53-69 (1981)).
as §1, with “μg/10” for “μg/3”, “weight in 20 min” for “weight”, “weight.” for “weight, to thereby obtain a peptide (II)-administeredgroup.”
The administration was conducted 6 times according to the following program. The first administration was conducted 30 minutes after the occlusion of MCA. The second administration was conducted in the morning of the next day of the first administration (2nd day). The third administration was conducted after 6 hours from the second administration. The fourth administration was conducted in the morning of the next day of the third administration (3rd day). […]
After one hour from the sixth administration, that is, 3 days after the rats had been subjected to occlusion of MCA, the rats were sacrificed. […] The water content of each of the hemispheres was measured.
The water content of a brain tissue was calculated by the following formula: [formula] wherein: W1 : weight of the cerebral hemisphere (wet basis)
W2 weight of the cerebral hemisphere (dry basis), which is measured after drying the wet cerebral hemisphere at 95° to 100° C. for 3 days.
The water contents calculated were statistically analyzed by the T-test to determine whether or not there is a significant difference between the water content of each of the groups to which peptide (II), peptide (III) and glycerol were individually administered and the water content of the control group to which physiological saline was administered. […]

[3] = tested on: vasogenic cerebral edema caused by cold injury; test: Effect on experimental vasogenic cerebral edema (investigation of administration time); type: in vivo, male Crj:CD (SD) rats; conditions: for Water content of injured cerebral hemisphere (the mean ± standard error): peptide 100 μg/kg, glycerol solution 10 ml/kg, 24 hours after injury
Description: Using 212 male Crj:CD (SD) rats weighing 300 to 400 g, model animals of vasogenic cerebral edema caused by cold injury were prepared according to the method of Naruse et al. (Brain and Nerve, 33 (6): 569-575 (1981).
as §1, with “to a predetermined number of” for “to eleven”, “of 3” for “of 10”, “weight in 90 min” for “weight”, “body weight. Thus, there were obtained six” for “body weight, to thereby obtain a”, “peptide (II)-administered groups.” for “peptide (II)-administeredgroup.”
As a control (solvent), 3 ml per kg of body, weight of the physiological saline was administered to a predetermined number of rats in substantially the same manner as mentioned above, to thereby obtain six physiological saline-administered groups.
As a control for the peptide, an aqueous 10% w/v glycerol solution containing 5% w/v fructose and 0.9% w/v sodium chloride was administered to a predetermined number of rats in substantially the same manner as mentioned above so that the total volume of the administered solution became 10 ml per kg of body weight, to thereby obtain six glycerol-administered groups.
24 hours after the rats were subjected to injury, rats were exsanguinated under ether anesthesia to kill them. Then, cerebra were extracted from the killed rats and each of the cerebra was individually divided into two cerebral hemispheres, namely, a hemisphere having ischemic part and a hemisphere having no ischemic part. The water content of each of the hemispheres was measured in substantially the same manner as in Example 1. In Table 3, the mean and the standard error of the water content of a brain tissue are shown together with the number of rats (n) subjected to experiment in each group.

[4] = 24 hours after cold injury, peptide 100 μg/kg tail vein started one hour before injury, 90 min, glycerol solution 10 ml/kg started 23 hours after injury
[5] = 3 days after MCA occlusion, peptide 100 μg/kg (glycerol 1 g/kg) tail vein, 6 administrations

OCC(O)CO [Glycerol, glycerol]
Water content of brain tissue (the mean ± standard error), injured cerebral hemisphere [1, 4]: 80.65 ± 0.23
Water content of brain tissue (the mean ± standard error), not injured cerebral hemisphere [1, 4]: 79.62 ± 0.19
increase in water content of the injured cerebral hemisphere, compared to physiological saline-administered group ([1]; cold injury): not so markedly inhibited
Water content of brain tissue (the mean ± standard error), hemisphere having ischemic part [2, 5]: 79.34 ± 0.15
Water content of brain tissue (the mean ± standard error), hemisphere having no ischemic part [2, 5]: 78.51 ± 0.14
increase in water content of the cerebral hemisphere having ischemic part, compared to physiological saline-administered group ([2]; MCA occlusion, T-test): significantly inhibited
increase in water content of a cerebral hemisphere, compared to physiological saline-administered groups ([3]; administered just after making the cold injury): significantly inhibited
Water content of injured cerebral hemisphere (the mean ± standard error) ([3]; administration 3 hours after the making of cold injury): 81.08 ± 0.20
Water content of injured cerebral hemisphere (the mean ± standard error) ([3]; administration 6 hours after the making of cold injury): 81.24 ± 0.19
Water content of injured cerebral hemisphere (the mean ± standard error) ([3]; administration 22 hours after the making of cold injury): 81.05 ± 0.17
Water content of injured cerebral hemisphere (the mean ± standard error) ([3]; administration during the making of cold injury): 80.79 ± 0.10
Water content of injured cerebral hemisphere (the mean ± standard error) ([3]; administration just after the making of cold injury): 80.77 ± 0.14
Water content of injured cerebral hemisphere (the mean ± standard error) ([3]; administration just before the making of cold injury): 81.22 ± 0.20
increase in water content of the injured cerebral hemisphere, compared to physiological saline-administered groups ([3]; remaining administration times (all except just after the cold injury)): not significantly inhibited
